Like-named read-outs stand apart in the source and are kept apart here.
Key:
[1] = test system: Kuramochi cells; experiment: IncuCyte Kuramochi Assay (cell proliferation); assay type: cell-based; details: Kuramochi cells labeled with mApple-H2B, cell count, read-out: IncuCyte - Kuramochi RB-WT: IC50
Method: IncuCyte® assay was used to measure the effect of disclosed compounds on cell proliferation. Fluorescent microscopy images of cells were taken immediately after compound treatment and 72 hours later. Image analysis software was used to obtain cell counts as a function of compound concentration. Kuramochi cells labeled with mApple-H2B were seeded on 384-well assay-ready plates. Plates were placed in an IncuCyte® (Sartorius) and scanned at 0 and 72 hours. IncuCyte® software was used to count the number of fluorescent nuclei in each well. The fold change in cell count from 0 to 72 hours in wells treated with increasing compounds concentrations (10 pts, ½ log dilution, 20 μM top concentration) was normalized to DMSO control wells. The normalized cell counts were fit with dose response curves and a […] was calculated.

[2] = target: T1, CDK2/Cyclin E1 (Homo sapiens, UniProt P24941); experiment: Caliper Assay (LabChip EZ Reader mobility shift assay), inhibition of CDK2/Cyclin E1 activity; assay type: biochemical; details: 2.5 nM CDK2/Cyclin E1(14-475), 100 μM ATP, 30 min preincubation; read-out: Caliper Assay (CDK2/CCNE1): IC50
T1 construct: purchased 14-475
Method: Inhibition of CDK2/Cyclin E1 activity in the presence of compounds of the present disclosure was evaluated using a Caliper LabChip® EZ Reader mobility shift assay. In the assay, activated CDK2/Cyclin E1 catalyzes the phosphorylation of a fluorescently tagged peptide 5-FAM-QSPKKG-CONH2 (PerkinElmer, FL Peptide 18) which induces a difference in capillary electrophoresis mobility. The peptide substrate and product were measured, and the conversion ratio was used to determine the inhibition (as % activity and IC50 values) of CDK2/Cyclin E1. Reactions contained 50 mM HEPES pH 7.5, 10 mM MgCl2, 1 mM EDTA, 2 mM DTT, 0.01% Brij35, 0.5 mg/mL BSA, 0.1% DMSO, 2.5 nM CDK2/Cyclin E1(14-475), 100 μM ATP, and 1.5 μM fluorescent peptide substrate.
Dose titrations of inhibitors in 100% DMSO were combined with 3.25 nM CDK2/Cyclin E1(14-475) and 130 μM of ATP in reaction buffer. The mixtures were incubated for 30 minutes before the addition of fluorescent peptide substrate to initiate the kinase reaction. The final conditions were 2.5 nM CDK2/Cyclin E1(14-475), 100 μM ATP, and 1.5 μM fluorescent peptide. The reactions were stopped after 100 minutes with the addition of EDTA (6 mM final EDTA concentration). The stopped reactions were analyzed on a Caliper LabChip© EZ Reader II. The conversion ratios were normalized to yield % activity, plotted against compound concentration, and fit to a four-parameter equation to determine the IC50 for each compound.

Structure (SMILES)	IC50 ([1]; 72 h) [µM]	IC50 [2] [µM]	IC50 ([1]; 72 hours) [µM]
O=C(CC(F)(F)F)N1CC(c2nnc(C(F)(F)c3ccc(Cl)c(Cl)c3)o2)C2(C1)CN(C(=O)CC(F)(F)F)C2 (stereo not drawn) [I-203]	> 10	> 10	
CC(C)(O)C(=O)N1CC2(CN(C(=O)c3cncs3)CC2c2nnc(C(F)(F)c3ccc(Cl)c(Cl)c3)o2)C1 (stereo not drawn) [I-178]	> 10	> 10	
CCOc1cc(C)nn1C(C)c1nc(C2CN(C(=O)c3cncs3)CC23CN(C(=O)[C@H]2CC2(C)C)C3)no1 (stereo partly drawn) [I-42, (2-((S)-2,2-dimethylcyclopropane-1-carbonyl)-8-(5-(1-(5-ethoxy-3-methyl-1H-pyrazol-1-yl)ethyl)-1,2,4-oxadiazol-3-yl)-2,6-diazaspiro[3.4]octan-6-yl)(thiazol-5-yl)methanone]	> 10	1 to 10	
CC1(C)C[C@@H]1C(=O)N1CC2(CN(C(=O)c3cnn(Cc4ccccc4)c3)CC2c2nnc(Cc3ccc(Cl)c(Cl)c3)o2)C1 (stereo partly drawn) [I-4]		1 to 10	> 10
CC1(C)C[C@@H]1C(=O)N1CC2(CN(C(=O)c3cncs3)CC2c2nnc(Cc3ccc4c(c3)CCCO4)o2)C1 (stereo partly drawn) [I-71]	> 10	1 to 10	
CC1(C)C[C@@H]1C(=O)N1CC2(CN(C(=O)c3cnc(C(F)(F)F)s3)CC2c2nnc(C(F)(F)c3ccc(Cl)c(Cl)c3)o2)C1 (stereo partly drawn) [I-54]	> 10	> 10	
Cc1nc(C)c(C(=O)N2CC(c3nnc(Cc4cccc(C5CCOCC5)n4)o3)C3(C2)CN(C(=O)[C@H]2CC2(C)C)C3)s1 (stereo partly drawn) [I-66, (2-((S)-2,2-dimethylcyclopropane-1-carbonyl)-8-(5-((6-(tetrahydro-2H-pyran-4-yl)pyridin-2-yl)methyl)-1,3,4-oxadiazol-2-yl)-2,6-diazaspiro[3.4]octan-6-yl)(2,4-dimethylthiazol-5-yl)methanone]	> 10	0.1 to 1	
CC1(C(=O)N2CC3(C2)CN(c2ncnc4ncsc24)CC3c2nnc(C(F)(F)c3ccc(Cl)c(Cl)c3)o2)CC1(F)F (stereo not drawn) [I-174, (8-(5-((3,4-dichlorophenyl)difluoromethyl)-1,3,4-oxadiazol-2-yl)-6-(thiazolo[4,5-d]pyrimidin-7-yl)-2,6-diazaspiro[3.4]octan-2-yl)(2,2-difluoro-1-methylcyclopropyl)methanone]	> 10	1 to 10	
CC(C)(c1ccc(Cl)c(Cl)c1)c1nnc(C2CN(C(=O)c3cncs3)CC23CN(C(=O)[C@H]2CC2(C)C)C3)o1 (stereo partly drawn) [I-39]	> 10	0.1 to 1	
O=C(c1cncs1)N1CC(c2nnc(Cc3ccc(Cl)c(Cl)c3)o2)C2(C1)CN(c1cccc[n+]1[O-])C2 (stereo not drawn) [I-60]	> 10	> 10	
O=C(C1CCOCC1)N1CC(c2nnc(C(F)(F)c3ccc(Cl)c(Cl)c3)o2)C2(C1)CN(C(=O)[C@H]1CC1(F)F)C2 (stereo partly drawn) [I-158]	> 10	> 10	
CC(C)(C#N)C(=O)N1CC2(CN(C(=O)c3cnccn3)CC2c2nnc(C(F)(F)c3ccc(Cl)c(Cl)c3)o2)C1 (stereo not drawn) [I-175]	> 10	> 10	
O=C(c1noc2cc(Cl)ccc12)N1CC(c2nnc(C(F)(F)c3ccc(Cl)c(Cl)c3)o2)C2(C1)CN(C(=O)[C@H]1CC1(F)F)C2 (stereo partly drawn) [I-152]	> 10	> 10	
O=C(C1CCNCC1)N1CC(c2nnc(C(F)(F)c3ccc(Cl)c(Cl)c3)o2)C2(C1)CN(C(=O)[C@H]1CC1(F)F)C2 (stereo partly drawn) [I-150, (8-(5-((3,4-dichlorophenyl)difluoromethyl)-1,3,4-oxadiazol-2-yl)-2-((R)-2,2-difluorocyclopropane-1-carbonyl)-2,6-diazaspiro[3.4]octan-6-yl)(piperidin-4-yl)methanone]	> 10	> 10	
CC(c1nc(C2CN(C(=O)c3cncs3)CC23CN(C(=O)[C@H]2CC2(C)C)C3)no1)n1nc(Cl)cc1Cl (stereo partly drawn) [I-81]	0.5 to 5	1 to 10	
CC1(C)C[C@@H]1C(=O)N1CC2(CN(C(=O)c3cnn(Cc4ccccc4)c3)CC2c2nnc(Cc3ccc(Cl)c(Cl)c3)o2)C1 (stereo partly drawn) [I-24]	5 to 10	0.1 to 1	
Cc1cc(C)n(C(C)c2nc(C3CN(C(=O)c4cnn(Cc5ccccc5)c4)CC34CN(C(=O)[C@H]3CC3(C)C)C4)no2)n1 (single isomer, unassigned) [I-2]	5 to 10		

— patent US20260151375A1, “CDK2 INHIBITORS AND METHODS OF USING THE SAME” (Cedilla Therapeutics, Inc., priority 2022, published 2026)
